Experimental data taken from ChEMBL document CHEMBL1909046, “DrugMatrix in vitro pharmacology data”.

Columns and labels:
[1] = molecular target: T1, Alpha-1B adrenergic receptor (Rattus norvegicus, UniProt P15823); assay: DRUGMATRIX: Alpha-1B adrenergic receptor radioligand binding (ligand: prazosin); type: cell membranes, Wistar, Liver, Membrane; conditions: Not Active = under 50% inhibition at 10 µM
T1 sequence (P15823 whole entry): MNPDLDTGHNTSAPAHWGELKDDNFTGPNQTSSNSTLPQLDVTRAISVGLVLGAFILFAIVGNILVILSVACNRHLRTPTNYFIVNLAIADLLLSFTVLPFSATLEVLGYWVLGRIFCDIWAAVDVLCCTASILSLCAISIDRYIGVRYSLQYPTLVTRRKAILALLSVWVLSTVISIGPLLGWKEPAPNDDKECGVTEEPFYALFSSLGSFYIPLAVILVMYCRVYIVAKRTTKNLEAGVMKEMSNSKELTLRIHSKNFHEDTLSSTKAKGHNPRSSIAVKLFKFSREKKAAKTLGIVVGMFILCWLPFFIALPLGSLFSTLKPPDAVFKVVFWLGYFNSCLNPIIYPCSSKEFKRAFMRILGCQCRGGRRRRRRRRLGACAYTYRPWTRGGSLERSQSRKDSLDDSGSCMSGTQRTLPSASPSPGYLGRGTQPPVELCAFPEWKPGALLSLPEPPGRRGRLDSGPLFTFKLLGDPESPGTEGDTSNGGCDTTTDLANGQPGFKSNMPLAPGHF

[2] = DRUGMATRIX: Glutamate, NMDA, Phencyclidine radioligand binding (ligand: [3H] TCP); type: cell membranes, Rattus norvegicus, Wistar, Cerebral cortex, Membrane; conditions: Not Active = under 50% inhibition at 10 µM
[3] = DRUGMATRIX: Leukotriene, BLT (LTB4) radioligand binding (ligand: [3H]LTB4); type: cell membranes, Membrane; conditions: u-937; Not Active = under 50% inhibition at 10 µM
Caspase-1 = molecular target: T2, Caspase-1 (Homo sapiens, UniProt P29466); design: species or system Escherichia coli;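 note: Caspase-1 enzyme inhibition assay with a peptide substrate; in other assays of this panel Not Active means under 50% inhibition at 10 µM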
T2 sequence (P29466 whole entry): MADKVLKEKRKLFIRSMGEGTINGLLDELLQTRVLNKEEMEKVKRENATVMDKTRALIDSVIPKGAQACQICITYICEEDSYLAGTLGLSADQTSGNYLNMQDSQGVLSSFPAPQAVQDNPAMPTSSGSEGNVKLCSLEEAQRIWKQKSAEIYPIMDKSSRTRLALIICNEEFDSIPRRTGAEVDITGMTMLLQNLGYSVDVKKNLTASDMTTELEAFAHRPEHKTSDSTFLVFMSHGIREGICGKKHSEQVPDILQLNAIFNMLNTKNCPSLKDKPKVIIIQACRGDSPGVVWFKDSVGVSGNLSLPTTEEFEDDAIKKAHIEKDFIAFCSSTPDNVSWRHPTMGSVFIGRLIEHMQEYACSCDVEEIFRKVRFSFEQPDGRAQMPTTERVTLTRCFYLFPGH

[4] = DRUGMATRIX: Tumor Necrosis Factor (TNF), Non-Selective radioligand binding (ligand: [125I] TNF-alpha); type: cell membranes, Membrane; conditions: u-937; Not Active = under 50% inhibition at 10 µM
[5] = molecular target: Aldo-keto reductase family 1 member B1 (Rattus norvegicus, UniProt P07943); type: tissue-based, Lens of camera-type eye;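 note: inhibition of aldose reductase enzyme activity, measured with DL-glyceraldehyde as the substrate; in other assays of this panel Not Active means under 50% inhibition at 10 µM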
[6] = molecular target: Kappa-type opioid receptor (Homo sapiens, UniProt P41145); assay: DRUGMATRIX: Opiate kappa (OP2, KOP) radioligand binding (ligand: [3H] Diprenorphine); type: cell membranes, HEK293, Membrane; conditions: Not Active = under 50% inhibition at 10 µM
Kappa-type opioid receptor, sequence (P41145 whole entry): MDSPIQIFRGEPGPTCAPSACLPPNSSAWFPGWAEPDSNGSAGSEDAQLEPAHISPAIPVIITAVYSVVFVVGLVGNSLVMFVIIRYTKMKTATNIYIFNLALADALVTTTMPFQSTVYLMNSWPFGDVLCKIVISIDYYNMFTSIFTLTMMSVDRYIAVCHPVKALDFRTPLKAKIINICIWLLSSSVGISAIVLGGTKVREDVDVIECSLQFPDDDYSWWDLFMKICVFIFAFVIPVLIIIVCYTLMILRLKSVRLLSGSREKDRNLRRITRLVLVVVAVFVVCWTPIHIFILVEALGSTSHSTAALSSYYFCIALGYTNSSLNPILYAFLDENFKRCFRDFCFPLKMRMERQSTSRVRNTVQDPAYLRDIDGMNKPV

Row | Compound | IC50 [1] | IC50 [2] | Ki [2] | IC50 [3] | Ki [3] | IC50 (Caspase-1) | IC50 [4] | Ki [4] | IC50 [5] | IC50 ([6]; hek293) | Ki [1] | Ki (Caspase-1) | Ki [5] | Ki [6] [µM] | IC50 ([6]; read-out: IC50) [µM]
1 | CC(c1cc2ccccc2s1)N(O)C(N)=O (configuration not stated) [ZILEUTON] | Not Active | Not Active | Not Active | Not Active | Not Active | Not Active | Not Active | Not Active | Not Active | Not Active |  |  |  |  | 
2 | O=C1Nc2ccc(Cl)cc2C(c2ccccc2Cl)=NC1O (configuration not stated) [LORAZEPAM] | Not Active | Not Active | Not Active | Not Active | Not Active | Not Active | Not Active | Not Active | Not Active | Not Active |  |  |  |  | 
3 | CCN(CC)CCOc1ccc(/C(=C(/Cl)c2ccccc2)c2ccccc2)cc1 [ENCLOMIPHENE] |  |  |  |  |  | Not Active |  |  | Not Active | Not Active |  |  |  |  | 
4 | CC(C)Cc1ccc([C@@H](C)C(=O)O)cc1 [(R)-IBUPROPHEN] | Not Active | Not Active | Not Active | Not Active | Not Active | Not Active | Not Active | Not Active | Not Active | Not Active |  |  |  |  | 
5 | O=C(Nc1ccc(Br)cc1)c1cc(Br)cc(Br)c1O [TRIBROMSALAN] | Not Active | Not Active | Not Active | Not Active | Not Active | Not Active | Not Active | Not Active | Not Active |  |  |  |  |  | 
6 | CN(C/C=C/C#CC(C)(C)C)Cc1cccc2ccccc12 [TERBINAFINE] | Not Active | Not Active | Not Active | Not Active | Not Active | Not Active | Not Active | Not Active | Not Active | Not Active |  |  |  |  | 
7 | Cn1c(=O)c2nc[nH]c2n(C)c1=O.O [THEOPHYLLINE] | Not Active | Not Active | Not Active | Not Active | Not Active | Not Active | Not Active | Not Active | Not Active | Not Active |  |  |  |  | 
8 | CC(C)NCC(O)c1ccc(NS(C)(=O)=O)cc1 (configuration not stated) [SOTALOL] | Not Active | Not Active | Not Active | Not Active | Not Active | Not Active | Not Active | Not Active | Not Active | Not Active |  |  |  |  | 
9 | CO[C@@H]1[C@@H](OC)[C@H](C)[C@@](O)(CC(=O)O)O[C@H]1[C@H](C)[C@H]1O[C@@]2(CC[C@@](C)([C@H]3CC[C@@](C)([C@@H]4O[C@@H]([C@H]5O[C@](C)(O)[C@H](C)C[C@@H]5C)C[C@@H]4O[C@@H]4C[C@H](OC)[C@@H](OC)[C@H](C)O4)O3)O2)C[C@H](O)[C@H]1C [MADURAMICIN ACID] |  | Not Active | Not Active | Not Active | Not Active | Not Active | Not Active | Not Active | Not Active | Not Active |  |  |  |  | 
10 | SODIUM ORTHOVANAD | Not Active | Not Active | Not Active | Not Active | Not Active | Not Active | Not Active | Not Active | Not Active |  | Not Active | Not Active | Not Active |  | 
11 | Cc1cccc(C)c1OCC(C)N (configuration not stated) [MEXILETINE] | Not Active | Not Active | Not Active | Not Active | Not Active | Not Active | Not Active | Not Active | Not Active | Not Active |  |  |  |  | 
12 | CC(C)NCC(O)c1ccc(O)c(O)c1 (configuration not stated) [ISOPROTERENOL] | Not Active | Not Active | Not Active | Not Active | Not Active | Not Active | Not Active | Not Active | Not Active | Not Active |  |  |  |  | 
13 | NC1CCN(c2nc3c(cc2F)c(=O)c(C(=O)O)cn3-c2ccc(F)cc2F)C1 (configuration not stated) [TOSUFLOXACIN] | Not Active | Not Active | Not Active | Not Active | Not Active | Not Active | Not Active | Not Active | Not Active | Not Active |  |  |  |  | 
14 | COc1ccc(CCN(C)CCCC(C#N)(c2ccc(OC)c(OC)c2)C(C)C)cc1OC (configuration not stated) |  | Not Active | Not Active | Not Active | Not Active | Not Active | Not Active | Not Active | Not Active | Not Active |  |  |  |  | 
15 | CN[C@H]1CC[C@@H](c2ccc(Cl)c(Cl)c2)c2ccccc21 [SERTRALINE] |  |  |  |  |  | Not Active |  |  | Not Active | Not Active |  |  |  |  | 
16 | O=C(Oc1ccccc1C(=O)O)c1ccccc1O [SALSALATE] | Not Active | Not Active | Not Active | Not Active | Not Active | Not Active | Not Active | Not Active | Not Active | Not Active |  |  |  |  | 
17 | NC(=O)N1C(=O)/C(=C(\O)c2cccs2)c2cc(Cl)ccc21 [TENIDAP] | Not Active | Not Active | Not Active | Not Active | Not Active | Not Active | Not Active | Not Active | Not Active | Not Active |  |  |  |  | 
18 | O=C1C(CC[S+]([O-])c2ccccc2)C(=O)N(c2ccccc2)N1c1ccccc1 (configuration not stated) [SULFINPYRAZONE] | Not Active | Not Active | Not Active | Not Active | Not Active | Not Active | Not Active | Not Active | Not Active | Not Active |  |  |  |  | 
19 | Fc1ccc(C(c2ccc(F)cc2)N2CCN(C/C=C/c3ccccc3)CC2)cc1 [FLUNARIZINE] |  |  |  |  |  | Not Active |  |  | Not Active | Not Active |  |  |  |  | 
20 | CC[C@@H](C(=O)[C@@H](C)[C@@H](O)[C@H](C)[C@@H]1O[C@@H]([C@@H](CC)C(=O)O)CC[C@@H]1C)[C@H]1O[C@]2(C=C[C@@H](O)[C@]3(CC[C@@](C)([C@H]4CC[C@](O)(CC)[C@H](C)O4)O3)O2)[C@H](C)C[C@@H]1C [SALINOMYCIN] | Not Active | Not Active | Not Active | Not Active | Not Active | Not Active | Not Active | Not Active | Not Active |  |  |  |  |  | 
21 | CN(C)CCOC(c1ccccc1)c1ccccc1 [DIPHENHYDRAMINE] |  |  |  |  |  | Not Active |  |  | Not Active | Not Active |  |  |  |  | 
22 | MANGANESE CHLORIDE ANHYDROUS | Not Active | Not Active | Not Active | Not Active | Not Active | Not Active | Not Active | Not Active | Not Active |  | Not Active | Not Active | Not Active |  | 
23 | CNCCC(Oc1ccc(C(F)(F)F)cc1)c1ccccc1 (configuration not stated) [FLUOXETINE] |  |  |  |  |  | Not Active |  |  | Not Active | Not Active |  |  |  |  | 
24 | Cc1ccc(NC(=O)c2ccc(CN3CCN(C)CC3)cc2)cc1Nc1nccc(-c2cccnc2)n1 [IMATINIB] |  |  |  |  |  | Not Active |  |  | Not Active | Not Active |  |  |  |  | 
25 | Clc1ccc(COC(Cn2ccnc2)c2ccc(Cl)cc2Cl)cc1 (configuration not stated) [ECONAZOLE] |  |  |  |  |  | Not Active |  |  | Not Active |  |  |  |  | 3.45 | 8.62
